In patent US10190093B2, “Artificial oocyte activation” (The Curators of the University of Missouri, priority 2013, dated 2019):
Where “and” joins values, the source holds several entries; their conditions need not be identical. Equal entries are not always repeated. Marks after values point to notes of the source that are not given here.

Columns and labels:
Type in all cases: cell-based, pig
[1] = test system: Metaphase II porcine oocytes; test: Parthenogenetic activation of porcine oocytes by TPEN alone
Protocol: Oocytes were obtained from either pre-pubertal gilt ovaries from an abattoir (Farmland Foods Inc., Milan, Mo.), or sow-derived oocytes that were purchased from Applied Reproductive Technology (Madison, Wis.). Immature oocytes from gilt ovaries were aspirated from medium size (3-6 mm) follicles by using an 18 gauge hypodermic needle attached to a 10 mL syringe. Oocytes with evenly dark cytoplasm and intact surrounding cumulus cells were then selected for maturation. Around 50 cumulus oocyte complexes were place in a well containing 500 μL of maturation medium, TCM 199 (Invitrogen, Grand Island, N.Y.) with 3.05 mM glucose, 0.91 mM sodium pyruvate, 0.57 mM cysteine, 10 ng/mL epidermal growth factor (EGF), 0.5 mg/mL luteinizing hormone (LH), 0.5 mg/mL follicle stimulating hormone (FSH), 10 ng/mL gentamicin (APP Pharm, Schaumburg, Ill.), and 0.1% polyvinyl alcohol (PVA) for 42-44 hr at 38.5° C., 5% CO2, in humidified air. The oocytes from sows were shipped overnight in maturation medium (TCM199 with 2.9 mM Hepes, […], 10 ng/mL EGF, 0.5 mg/mL p-FSH, 0.91 mM pyruvate, 0.5 mM cysteine, 10% porcine follicular fluid, 25 ng/mL gentamicin) and transferred into fresh medium at 24 hr. At the end of the maturation, the surrounding cumulus cells were removed from the oocytes by vortexing for 3 min in the presence of 0.1% hyaluronidase. Oocytes with a visible polar body were selected in manipulation medium (TCM199 with 0.6 mM NaHCO3, 2.9 mM Hepes, 30 mM NaCl, 10 ng/mL gentamicin, and 3 mg/mL bovine serum albumin [BSA]; and osmolarity of 305) and then used for the experiments. Different oocyte activation methods were used for the experiments. As conventional activation methods, either electrical or chemical activation was used. For electrical activation, mature oocytes were activated in activation medium (0.3 M mannitol, 1.0 mM CaCl2, 0.1 mM MgCl2, and 0.5 mM Hepes) by two direct-current (DC) pulses (1-sec interval) at 1.2 kV/cm for 30 μsec (using BTX Electro Cell Manipulator, Harvard Apparatus, Holliston, Mass.). […] For TPEN mediated activation, mature oocytes were incubated in TL-Hepes media with various concentrations of TPEN for different durations. […] At the end of the culture, where applicable, the frequency of cleaved embryos and blastocysts, and total cell number in the blastocysts were recorded. Hoechst 33342 (1.2 mg/mL) was used to stain nuclei and the embryos were then evaluated by epi-fluorescence microscopy. Metaphase II porcine oocytes were incubated in vitro with TPEN to determine if the concentration/duration of 100 μM of TPEN for 45 min, as described in the mouse study by Suzuki, et al. (Development 137, 2659-2669, 2010) had any effect on pig oocytes. […] A wide range of TPEN concentrations/durations was tested to identify an optimum concentration of TPEN that can activate pig oocytes; 100 μM, 200 μM, and 250 μM and 30 min-2.5 hours of duration were tested (Table 1). Optimum embryo development was achieved by using 200 μM TPEN for 30 min.

[2] = test system: activated porcine oocytes; test: Treatment of chemically (THI/DTT) activated oocytes with TPEN, parthenogenetic embryo development
Protocol: Oocytes were obtained from either pre-pubertal gilt ovaries from an abattoir (Farmland Foods Inc., Milan, Mo.), or sow-derived oocytes that were purchased from Applied Reproductive Technology (Madison, Wis.). Immature oocytes from gilt ovaries were aspirated from medium size (3-6 mm) follicles by using an 18 gauge hypodermic needle attached to a 10 mL syringe. Oocytes with evenly dark cytoplasm and intact surrounding cumulus cells were then selected for maturation. Around 50 cumulus oocyte complexes were place in a well containing 500 μL of maturation medium, TCM 199 (Invitrogen, Grand Island, N.Y.) with 3.05 mM glucose, 0.91 mM sodium pyruvate, 0.57 mM cysteine, 10 ng/mL epidermal growth factor (EGF), 0.5 mg/mL luteinizing hormone (LH), 0.5 mg/mL follicle stimulating hormone (FSH), 10 ng/mL gentamicin (APP Pharm, Schaumburg, Ill.), and 0.1% polyvinyl alcohol (PVA) for 42-44 hr at 38.5° C., 5% CO2, in humidified air. […] At the end of the maturation, the surrounding cumulus cells were removed from the oocytes by vortexing for 3 min in the presence of 0.1% hyaluronidase. Oocytes with a visible polar body were selected in manipulation medium (TCM199 with 0.6 mM NaHCO3, 2.9 mM Hepes, 30 mM NaCl, 10 ng/mL gentamicin, and 3 mg/mL bovine serum albumin [BSA]; and osmolarity of 305) and then used for the experiments. Different oocyte activation methods were used for the experiments. As conventional activation methods, either electrical or chemical activation was used. For electrical activation, mature oocytes were activated in activation medium (0.3 M mannitol, 1.0 mM CaCl2, 0.1 mM MgCl2, and 0.5 mM Hepes) by two direct-current (DC) pulses (1-sec interval) at 1.2 kV/cm for 30 μsec (using BTX Electro Cell Manipulator, Harvard Apparatus, Holliston, Mass.). […] For TPEN mediated activation, mature oocytes were incubated in TL-Hepes media with various concentrations of TPEN for different durations. […] At the end of the culture, where applicable, the frequency of cleaved embryos and blastocysts, and total cell number in the blastocysts were recorded. Hoechst 33342 (1.2 mg/mL) was used to stain nuclei and the embryos were then evaluated by epi-fluorescence microscopy. Treatment of activated oocytes with TPEN was investigated for the potential to increase the efficiency of oocyte activation. […] It was hypothesized that the detrimental effect was due to excess stimuli from Ca^2+ signaling and TPEN. Therefore, lower concentrations of TPEN were introduced after activating oocytes with a conventional method. Incubating activated oocytes with a lower concentration of TPEN increased developmental potential of parthenogenetic embryos.

SCNT embryos = test: TPEN activation method on the development of SCNT embryos; conditions: SCNT embryos activated with TPEN (200 μM, 30 min) as major activating reagent
Protocol: At the end of the culture, where applicable, the frequency of cleaved embryos and blastocysts, and total cell number in the blastocysts were recorded. Hoechst 33342 (1.2 mg/mL) was used to stain nuclei and the embryos were then evaluated by epi-fluorescence microscopy. Additionally, the effect of the TPEN activation method alone on the development of SCNT embryos was tested.

`c1ccc(CN(CCN(Cc2ccccn2)Cc2ccccn2)Cc2ccccn2)nc1` [TPEN, N,N,N′,N′-tetrakis(2-pyridylmethyl)ethane-1,2-diamine] was tested, and the “Frequency of forming blastocysts on day 7” value ([1]; 100 μM of TPEN for 45 min) was 13%, the “blastocyst formation on day 5” value ([1]; 100 μM of TPEN for 45 min) was “No blastocyst formation was observed” and the “expanded blastocysts on day 7” value ([1]; 100 μM of TPEN for 45 min) was “no expanded blastocysts”. For the same compound, the “toxic effect on embryo development” value ([1]; 250 μM TPEN over 2.5 hours) was “toxic effect”, the “% blastocysts” value ([1]; TPEN alone, 100 μM, 2 hr) was 12.0% and the “% blastocysts” value ([1]; TPEN alone, 200 μM, 30 min) was 23.0%. The “total number of nuclei in blastocysts” value ([1]; TPEN alone, 200 μM, 30 min) was 27.2±1.92, the “% blastocysts” value ([1]; TPEN alone, 200 μM, 1 hr) was 20.0% and the “% blastocysts” value ([1]; TPEN alone, 250 μM, 2 hr) was 10.0%. The “% blastocysts” value ([2]; THI/DTT + 5 μM TPEN, 30 min) was 27.2±1.7% and 27.2^b %, the “% cleaved” value ([2]; THI/DTT + 5 μM TPEN, 30 min) was 74.6^b % and the “Total cell number in blastocysts” value ([2]; THI/DTT + 5 μM TPEN, 30 min) was 33.1 ± 2.6^b. For the same compound, the “% blastocysts” value ([2]; THI/DTT + 10 μM TPEN, 10 min) was 21.7^b %, the “% cleaved” value ([2]; THI/DTT + 10 μM TPEN, 10 min) was 81.9^b % and the “Total cell number in blastocysts” value ([2]; THI/DTT + 10 μM TPEN, 10 min) was 31.2 ± 2.6^b. For the same compound, the blastocyst formation ([2]; chemically activated oocytes incubated with TPEN 100 μM, 45 min) was “no blastocyst formation was observed”, the “Day 6 blastocyst formation” value (SCNT embryos) was 25.8% (8/31) and the “Day 7 blastocyst formation” value (SCNT embryos) was 35.5% (11/31).
